Reference: US6645513B2, “Treatment of skin with adenosine or adenosine analog” (University of Massachusetts, priority 1998, dated 2003)
Values joined by “and” are separate entries in the source; they are usually repeats but may differ in a detail not shown here. Identical values can stand only once. Marks after values point to notes of the source that are not given here.

Columns and labels:
Type in all cases: cell-based
human skin fibroblasts [1] = experiment: [3H]thymidine incorporation (index of DNA synthesis) in human skin fibroblasts
Description: (§1) Human skin fibroblasts and human lung fibroblasts were supplied by the N.I.A. Aging Culture Repository Center (Camden, N.J.). For skin fibroblasts, primary cultures had been initiated from explants obtained from a 3 mm punch biopsy of the mesial aspect of the upper left arm. Human lung fibroblasts (IMR-90) were established from a […] normal […] fetus.
Cells were grown in Eagle's minimal essential medium (MEM) supplemented with 10% fetal bovine serum (FBS), 100 U/ml penicillin and […] streptomycin in a 37° C., 5% CO2/95% air environment. After reaching confluence, cells were subcultivated with 0.25% trypsin in MEM with no added Ca^2+ or Mg^2+.
As an index of DNA synthesis incorporation of [^3H]thymidine was measured as described in Ethier et al., Am. J. Physiol. 272:H1470-79 (1997). Confluent monolayers of human skin fibroblasts in MEM plus 10% FBS were seeded into 16 mm diameter culture wells (24-well plates) at a density of 1×10^4 cells/cm^2. Cells were grown at 37° C. under standard culture conditions (5% CO2-95% air) until they were approximately 75% confluent. Medium was then removed and the cells were made “serum-free” by incubation in MEM with no FBS for 24 hours. Adenosine or vehicle (MEM) was added for an additional 18 hours. This medium was then replaced with fresh MEM, and the cells were pulsed with […] [^3H] thymidine (6.7 Ci/mmol). After a 2 hour incubation period, the medium was discarded and the cells were rinsed twice with cold (4° C.) Hank's balanced salt solution (HBSS) and incubated for 5 minutes with 0.5 ml cold 10% (w/v) trichloroacetic acid (TCA). The wells were then rinsed with 8% TCA and the TCA-insoluble material was solubilized with 0.5 ml of a solution of 0.2M NaOH and 0.2% sodium […] sulfate (SDS). The radioactivity of this fraction was determined by standard liquid scintillation spectrometric techniques.
Incorporation of [^3H] thymidine was expressed as counts per minute (cpm) of ^3H per culture. Data in each experiment was derived from 4 identically treated wells.

human skin fibroblasts [2] = experiment: Determination of cell size by forward light scatter (FACS); details: for % increase (cell size) / Relative Size (FLS): adenosine 10^-4 M, 18 h; for increase of cell size: 10^-4 M
Description: Human fibroblasts in MEM 10% FBS were seeded into 25 cm^2 culture flasks at a density of 1×10^4 cells/cm^2. When the cells had grown to approximately 80% confluence the culture medium was removed and the cells were incubated in serum-free MEM for 24 hours. Adenosine or vehicle (MEM) was added for 18 hours and cells were then washed twice with cold (4° C.) HBSS. Cells were removed with 0.25% trypsin in calcium-and magnesium-free MEM and diluted in cold (4° C.) HBSS for measurement of relative cell size with a fluorescence-activated cell sorter (FACS; Becton Dickinson Vantage). Cell size was determined by forward light scatter on a minimum of 1×10^4 cells per experiment. The effect of adenosine on cell size was determined on human skin fibroblasts from young and aged donors by measuring forward light scatter in a FACS analyzer. Cultures made quiescent by serum removal were exposed to adenosine for 18 hours, removed by trypsinization, and diluted in 4° C. HBSS. A minimum of 1×10^4 cells were measured for each experiment. Values are mean ±SEM for relative cell size determined by forward light scatter (FLS) in a fluorescence-activated cell sorter, and n=number of cells measured.

human skin fibroblasts [3] = experiment: [3H]phenylalanine incorporation (index of protein synthesis) in human skin fibroblasts; details: 10^-4 M, 48 h
Description: FIGS. 2A and 2B are histograms showing concentration responses of adenosine-stimulated protein synthesis in human skin fibroblasts from a young (FIG. 2A) and aged (FIG. 2B) donor. Cells were grown to 75% confluence. Medium was then replaced with serum-free medium with or without adenosine. After 48 hours, [^3H]phenylalanine incorporation was determined as described. Results are expressed as %[^3H]phenylalanine incorporation compared to control cultures without adenosine and are means ±SEM for 6-25 experiments. […] Incorporation of [^3H]phenylalanine was measured as an index of protein synthesis. Human skin fibroblasts were seeded into 24-well culture plates in MEM containing 10% FBS. When cells had grown to approximately 75% confluence the culture medium was replaced with serum-free MEM with or without adenosine. After 48 hours, 2 μCi/ml [^3H]phenylalanine was added to the cultures. Unlabeled phenylalanine (0.36 mM) was also added to equalize concentrations of intracellular and extracellular phenylalanine. […] The radioactivity of this fraction was determined by standard liquid scintillation spectrometric techniques. Incorporation of [^3H] phenylalanine was expressed as cpm of ^3H per culture well and data in each experiment were derived from six identically treated wells.

[4] = test system: human lung fibroblasts (IMR-90); experiment: [3H]thymidine incorporation in human lung fibroblasts (IMR-90); details: IMR-90 lung fibroblasts
Description: FIGS. 1A and 1B are histograms showing the effect of adenosine on [^3H]thymidine incorporation in cultures of normal human skin (FIG. 1A) and lung fibroblasts (FIG. 1B). After incubation in serum-free medium for 24 hours, cells were exposed to 10^−4 M adenosine for 18 hours. Medium was replaced with serum-free medium without adenosine, and [^3H]thymidine was added. Results are expressed as percent [^3H]thymidine incorporation compared to control cultures without adenosine and are means ±SEM for 4-5 experiments.
as §1
Cells were grown in Eagle's minimal essential medium (MEM) supplemented with 10% fetal bovine serum (FBS), 100 U/ml penicillin and […] streptomycin in a 37° C., 5% CO2/95% air environment. […]
As an index of DNA synthesis incorporation of [^3H]thymidine was measured as described in Ethier et al., Am. […] The radioactivity of this fraction was determined by standard liquid scintillation spectrometric techniques.
Incorporation of [^3H] thymidine was expressed as counts per minute (cpm) of ^3H per culture. […]

## Nc1ncnc2c1ncn2[C@@H]1O[C@H](CO)[C@@H](O)[C@H]1O [adenosine]
Human skin fibroblasts [1]; human fibroblasts AG607720B made quiescent by serum removal, 10^-4 M adenosine, five studies (FIG. 1A)
  increase of [3H]thymidine incorporation: 43±9%
Human skin fibroblasts [1]; skin fibroblasts from person (AG07306A), 10^-4 M, n=6
  peak stimulation of [3H]thymidine incorporation: 93±20%
Human skin fibroblasts [1]; skin fibroblasts from person one, 10^-4 M
  increase of [3H]thymidine incorporation: 53±31%
Human skin fibroblasts [1]; skin fibroblasts from person three, 10^-4 M
  increase of [3H]thymidine incorporation: 54±22%
Human skin fibroblasts [1]; skin fibroblasts from person two, 10^-4 M
  effect on DNA synthesis ([3H]thymidine incorporation): no effect
Human skin fibroblasts [2]; aged donor, experiment 1
  % increase (cell size): 2.7* %
  Relative Size (FLS): 342 ± 0.75
Human skin fibroblasts [2]; aged donor, experiment 2
  % increase (cell size): 4.3* %
  Relative Size (FLS): 337 ± 0.96
Human skin fibroblasts [2]; aged donor, experiment 3
  % increase (cell size): 4.9* %
  Relative Size (FLS): 321 ± 0.81
Human skin fibroblasts [2]; skin fibroblasts from person (AG073060A), two of three experiments
  increase of cell size: 1.8% and 2.2%
Human skin fibroblasts [2]; skin fibroblasts from person three (AG11730), 3 of 3 experiments
  increase of cell size: 2.7-4.9%
Human skin fibroblasts [2]; young donor, experiment 1
  % increase (cell size): 0.4%
  Relative Size (FLS): 526 ± 0.55
Human skin fibroblasts [2]; young donor, experiment 2
  % increase (cell size): 2.2* %
  Relative Size (FLS): 326 ± 1.16
Human skin fibroblasts [2]; young donor, experiment 3
  % increase (cell size): 1.8* %
  Relative Size (FLS): 348 ± 0.95
Human skin fibroblasts [3]; skin fibroblasts from person (AG073060A), n=25
  increase of protein synthesis ([3H]phenylalanine incorporation): 13±4%
Human skin fibroblasts [3]; skin fibroblasts from person three (AG11730), n=17
  increase of protein synthesis ([3H]phenylalanine incorporation): 13±6%
[4]; adenosine 10^-4 M (FIG. 1B)
  effect on [3H]thymidine incorporation: no effect
[4]; adenosine 10^-7 M to 10^-3 M (data not shown)
  stimulation of [3H]thymidine incorporation: failed to stimulate
